In patent US20250376458A1, “COMPOUNDS AND METHODS FOR YAP/TEAD MODULATION AND INDICATIONS THEREFOR” (OPNA BIO SA, priority 2023, published 2025):
Where two headings read alike, the source gives them in different places.

System: TEAD-dependent transcription
Assay: TEAD-dependent transcription cell-based luciferase reporter assay (MSTO-211H+12XGTIIC)
Set-up: species or system human
Settings: MSTO-211H+12XGTIIC cell line, 24 hours compound incubation, luminescence normalized to cell viability fluorescence signal, read-out: MSTO-211H GMean IC50 (uM) Cell Assay Reporter Cell Variant: TEAD
Text: Determine Inhibitor Activity Against TEAD-Dependent Transcription in a Cell-Based Reporter Assay
The human mesothelioma cell line MSTO-211H was stably transfected with a pGL4.21 plasmid containing a synthetic promoter with 12 copies of the GTIIC TEAD response element that drives the expression of a luciferase reporter gene i using Lipofectamine transfection reagent (Thermo Fisher). Transfected cells were selected using puromycin and single cell clones expressing this construct (referred to as MSTO-211H+12XGTIIC) were generated by limiting dilution. MSTO-211H cells was characterized by genetic alterations in key components of the Hippo pathway^2, resulting in up-regulation of YAP/TEAD-mediated transcription. […] To evaluate TEAD inhibitors, the MSTO-211H+12XGTIIC cell line was seeded in a 96-well plate in 50 μL of culture media at 1×10^4 cells per well and incubated at 37° C. overnight. Serial dilutions of compounds (in total volume of 50 μL of culture media) were added to the cells and incubated at 37° C. for 24 hours. Each plate included cells treated with DMSO as high controls and cells treated with 20 μM of the reference compound K-975 (a known TEAD inhibitor)^3 as low controls. Cell viability was assayed by the addition of 25 μL of CellTiter-Fluor reagent (Promega) followed by a 30-minute incubation at 37° C. and quantification of the fluorescence signal (Ex400/Em505). Subsequently, luciferase expression was assayed by the addition of 25 μL of ONE-Glo reagent (Promega) followed by a 10-minute incubation at room temperature and quantification of the luminescence signal. The luminescence signal was normalized to the fluorescence signal to correct for any loss in cell viability over the 24-hour compound incubation period. The percentage of inhibition of normalized luminescence signal, indicative of compound-mediated inhibition of TEAD-dependent transcription, at individual compound concentrations relative to high and low controls was calculated. The data were analyzed by using nonlinear regression to generate IC50 values for individual compounds.

Structure (SMILES) | IC50 (Homo sapiens, MSTO-211H, 24 h) [µM] | IC50 [µM]
CS(=O)(=O)c1nc(C(=O)N2CCc3ccc(Nc4ccc(C(F)(F)F)cc4F)cc3C2)c[nH]1 [O-0017, (7-((2-fluoro-4-(trifluoromethyl)phenyl)amino)-3,4-dihydroisoquinolin-2(1H)-yl)(2-(methylsulfonyl)-1H-imidazol-4-yl)methanone] | 10 to 100 | –
CS(=O)(=O)c1nc(C(=O)N2CCc3cc(Oc4ccc(C(F)(F)F)cc4F)ccc3C2)c[nH]1 [O-0075, (6-(2-fluoro-4-(trifluoromethyl)phenoxy)-3,4-dihydroisoquinolin-2(1H)-yl)(2-(methylsulfonyl)-1H-imidazol-4-yl)methanone] | 0.001 to 10 | –
CCS(=O)(=O)c1nc(C(=O)N2CCc3c(ncnc3Oc3ccc(C(F)(F)F)c(F)c3)C2)c[nH]1 [O-0113, (2-(ethylsulfonyl)-1H-imidazol-4-yl)(4-(3-fluoro-4-(trifluoromethyl)phenoxy)-5,8-dihydropyrido[3,4-d]pyrimidin-7(6H)-yl)methanone] | 0.001 to 10 | –
CCS(=O)(=O)c1nc(C(=O)N2CCc3cc(Oc4ccc(C(F)(F)F)cc4)ccc3C2)c[nH]1 [O-0079, (2-(ethylsulfonyl)-1H-imidazol-4-yl)(6-(4-(trifluoromethyl)phenoxy)-3,4-dihydroisoquinolin-2(1H)-yl)methanone] | 0.001 to 10 | –
CS(=O)(=O)c1nc(C(=O)N2CCc3cc(Oc4ccc(C(F)(F)F)cc4)ccc3C2)c[nH]1 [O-0073, (2-(methylsulfonyl)-1H-imidazol-4-yl)(6-(4-(trifluoromethyl)phenoxy)-3,4-dihydroisoquinolin-2(1H)-yl)methanone] | 10 to 100 | –
CS(=O)(=O)c1ncc(C(=O)N2CCc3ccc(Oc4ccc(C(F)(F)F)c(F)c4)cc3C2)[nH]1 [O-0123, (7-(3-fluoro-4-(trifluoromethyl)phenoxy)-3,4-dihydroisoquinolin-2(1H)-yl)(2-(methylsulfonyl)-1H-imidazol-5-yl)methanone] | 10 to 100 | –
CCS(=O)(=O)c1nc(C(=O)N2CCc3c(cccc3Nc3ccc(C(F)(F)F)cc3)C2)c[nH]1 [O-0012, (2-(ethylsulfonyl)-1H-imidazol-4-yl)(5-((4-(trifluoromethyl)phenyl)amino)-3,4-dihydroisoquinolin-2(1H)-yl)methanone] | > 100 | –
CS(=O)(=O)c1nc(C(=O)N2CCc3c(ncnc3Oc3ccc(C(F)(F)F)c(F)c3)C2)c[nH]1 [O-0115, (4-(3-fluoro-4-(trifluoromethyl)phenoxy)-5,8-dihydropyrido[3,4-d]pyrimidin-7(6H)-yl)(2-(methylsulfonyl)-1H-imidazol-4-yl)methanone] | – | 0.001 to 10
CS(=O)(=O)c1nc(C(=O)N2CCc3c(cccc3Nc3ccc(C(F)(F)F)c(F)c3)C2)c[nH]1 [O-0004, (5-((3-fluoro-4-(trifluoromethyl)phenyl)amino)-3,4-dihydroisoquinolin-2(1H)-yl)(2-(methylsulfonyl)-1H-imidazol-4-yl)methanone] | 0.001 to 10 | –
CS(=O)(=O)c1nc(C(=O)N2CCc3c(ncnc3Oc3ccc(C(F)(F)F)cc3)C2)c[nH]1 [O-0119, (2-(methylsulfonyl)-1H-imidazol-4-yl)(4-(4-(trifluoromethyl)phenoxy)-5,8-dihydropyrido[3,4-d]pyrimidin-7(6H)-yl)methanone] | – | 0.001 to 10
CCCS(=O)(=O)c1nc(C(=O)N2CCc3c(cccc3Nc3ccc(C(F)(F)F)cc3)C2)c[nH]1 [O-0020, (2-(propylsulfonyl)-1H-imidazol-4-yl)(5-((4-(trifluoromethyl)phenyl)amino)-3,4-dihydroisoquinolin-2(1H)-yl)methanone] | 0.001 to 10 | –
O=C(c1c[nH]c(S(=O)(=O)C2CCC2)n1)N1CCc2c(cccc2Nc2ccc(C(F)(F)F)cc2)C1 [O-0126, (2-(cyclobutylsulfonyl)-1H-imidazol-4-yl)(5-((4-(trifluoromethyl)phenyl)amino)-3,4-dihydroisoquinolin-2(1H)-yl)methanone] | 0.001 to 10 | –
CS(=O)(=O)c1nc(C(=O)N2CCc3cc(Oc4ccc(C(F)(F)F)c(F)c4)cnc3C2)c[nH]1 [O-0077, (3-(3-fluoro-4-(trifluoromethyl)phenoxy)-5,8-dihydro-1,7-naphthyridin-7(6H)-yl)(2-(methylsulfonyl)-1H-imidazol-4-yl)methanone] | 0.001 to 10 | –
CC(C)S(=O)(=O)c1nc(C(=O)N2CCc3c(cccc3Nc3ccc(C(F)(F)F)c(F)c3)C2)c[nH]1 [O-0027, (5-((3-fluoro-4-(trifluoromethyl)phenyl)amino)-3,4-dihydroisoquinolin-2(1H)-yl)(2-(isopropylsulfonyl)-1H-imidazol-4-yl)methanone] | 0.001 to 10 | –
CCS(=O)(=O)c1nc(C(=O)N2CCc3c(ncnc3Oc3ccc(C(F)(F)F)cc3F)C2)c[nH]1 [O-0116, (2-(ethylsulfonyl)-1H-imidazol-4-yl)(4-(2-fluoro-4-(trifluoromethyl)phenoxy)-5,8-dihydropyrido[3,4-d]pyrimidin-7(6H)-yl)methanone] | – | 0.001 to 10
CS(=O)(=O)c1nc(C(=O)N2CCc3c(ncnc3Oc3ccc(C(F)(F)F)cc3F)C2)c[nH]1 [O-0120, (4-(2-fluoro-4-(trifluoromethyl)phenoxy)-5,8-dihydropyrido[3,4-d]pyrimidin-7(6H)-yl)(2-(methylsulfonyl)-1H-imidazol-4-yl)methanone] | 0.001 to 10 | –
CCS(=O)(=O)c1nc(C(=O)N2CCc3c(cccc3Oc3ccc(C(F)(F)F)cc3)C2)c[nH]1 [O-0011, (2-(ethylsulfonyl)-1H-imidazol-4-yl)(5-(4-(trifluoromethyl)phenoxy)-3,4-dihydroisoquinolin-2(1H)-yl)methanone] | 10 to 100 | –
Cn1cc(C(=O)N2CCc3c(cccc3Nc3ccc(C(F)(F)F)cn3)C2)nc1S(C)(=O)=O [O-0005, (1-methyl-2-(methylsulfonyl)-1H-imidazol-4-yl)(5-((5-(trifluoromethyl)pyridin-2-yl)amino)-3,4-dihydroisoquinolin-2(1H)-yl)methanone] | 0.001 to 10 | –
CS(=O)(=O)c1nc(C(=O)N2CCc3c(cccc3OC3CCC(F)(F)CC3)C2)c[nH]1 [O-0112, (5-((4,4-difluorocyclohexyl)oxy)-3,4-dihydroisoquinolin-2(1H)-yl)(2-(methylsulfonyl)-1H-imidazol-4-yl)methanone] | 0.001 to 10 | –
CS(=O)(=O)c1nc(C(=O)N2CCc3c(cccc3NC3CCC(F)(F)CC3)C2)c[nH]1 [O-0124, (5-((4,4-difluorocyclohexyl)amino)-3,4-dihydroisoquinolin-2(1H)-yl)(2-(methylsulfonyl)-1H-imidazol-4-yl)methanone] | > 100 | –
CCS(=O)(=O)c1nc(C(=O)N2CCc3c(ncnc3Oc3ccc(C(F)(F)F)cc3F)C2)c[nH]1 [O-0129, (2-(ethylsulfonyl)-1H-imidazol-4-yl)(4-(2-fluoro-4-(trifluoromethyl)phenoxy)-5,8-dihydropyrido[3,4-d]pyrimidin-7(6H)-yl)methanone] | – | 10 to 100
CCCS(=O)(=O)c1nc(C(=O)N2CCc3c(cccc3Oc3ccc(C(F)(F)F)cc3)C2)c[nH]1 [O-0019, (2-(propylsulfonyl)-1H-imidazol-4-yl)(5-(4-(trifluoromethyl)phenoxy)-3,4-dihydroisoquinolin-2(1H)-yl)methanone] | 0.001 to 10 | –
